Like-named read-outs stand apart in the source and are kept apart here.
Assays:
[1] = tested on: Wilson strain house flies; type: in vivo, Wilson strain (susceptible); conditions: for Contact Synergistic Ratio, Pyrolan: LC50 pyrolan alone / LC50 with synergist
Protocol: The required solutions of the insecticide and of the synergist compound were prepared in acetone at a concentration of 1 milligram per milliliter. One-pint wide mouth glass jars were coated with the appropriate insecticide-synergist combination by rolling the jars containing aliquots of the appropriate solutions diluted to three milliliters with acetone to deposit, by evaporation, a film of the test materials. The flies were transferred under carbon dioxide anesthesia and held in the jar at room temperature. Perforated aluminum foil was used to cover the jars and to hold cotton saturated with 10% sugar solution. Counts were made at intervals, but the recorded mortality was based on 24-hour kill, rather than knockdown. All prostrate non-moving flies were considered dead. A determination was then made of the contact synergistic ratio [SR], which is the ratio of the LC50 of insecticide alone to the LC50 of the insecticide when applied together with the synergist. The LC50 of the insecticide was estimated from a log-probit plot of percent kill versus dosage. […] The LC50 of the combination of insecticide and synergist was determined at a synergist to insecticide parts by weight ratio of five to one.

male mice = test: extension of sleeping time of depressant drugs by synergists; type: in vivo, male mice (Swiss albino white); conditions: for Mean Sleeping Time, Noludar / Relative Sleeping Time, Noludar: Noludar 110 mg/kg; for Relative Sleeping Time, Noludar / Relative Sleeping Time, Secobarbital: treated/control; for Mean Sleeping Time, Secobarbital / Relative Sleeping Time, Secobarbital: Secobarbital 37 mg/kg
Protocol: The selectivity of the synergist compounds of this invention is illustrated by the results of sleeping-time extension tests and of acute toxicity tests on Swiss albino white male mice.
The effect of various synergist compounds on sleeping time of sodium secobarbital [Secobarbital] and of 3,3-diethyl-5-methyl-2,4-dioxypiperidine [Noludar] was determined by administering the drug, with and without synergist, to approximately 38-day old male mice weighing from 25 to 30 grams. Synergists were administered in each of two doses, 74.0 mg/kg (dilution being 2.0 mg/0.1 ml corn oil), and 110.0 mg/kg (dilution 3.0 mg/0.1 ml oil). Secobarbital was administered at a dose of 37.0 mg/kg (dilution 1.0 mg/0.1 ml water). Noludar was administered at a dose of 110.0 mg/kg (dilution 3.0 mg/0.1 ml water). The synergist was administered one hour prior to administration of the Secobarbital or Noludar. Secobarbital and Noludar sleeping times were obtained for both the control (drug only) and the treated (synergist plus drug) mice by noting the time lapse between the administration of the drug and the recovery of the righting reflex, i.e. when the animal regains conciousness and can walk up an inclined wooden tray with coordination. The relative sleeping time (R.S.) was noted. The R.S. is the extended sleeping time in the treated mice (synergist plus drug) divided by the sleeping time in the control mice (drug only). The mean sleeping time for the treated mice and the R.S. are shown on Table XXXXIV for various synergist compounds.

[2] = tested on: Swiss albino, white male mice; test: acute toxicity and synergism of acute toxicity in mice; type: in vivo; conditions: 48 hours, eight mice
Protocol: To determine the acute toxicity of dimetilan alone, eight dosage levels of Dimetilan, ranging from 4 to 32 mg per kg were applied to eight, Swiss, albino, white, male mice per dosage level. The mice weighed approximately 23 to 27 grams and were five to six weeks old. The Dimetilan was administered intraperitoneally in 0.1 ml of corn oil one hour after the administration of the same dose of corn oil alone.
To determine the acute toxicity of the synergist alone, various synergists were administered intraperitoneally at a dose of 1000 mg/kg to each of a group of eight mice. The number of animals dead at the end of 72 hours is reported in the left hand column of Table XXXXVI.
The synergism of the acute toxicity of Dimetilan by various synergists was determined by tests on Swiss albino, white male mice aged five to six weeks and weighing 23 to 27 grams. The synergists and insecticides were dissolved in corn oil and the drugs were dissolved in distilled water. All compounds were administered intraperitoneally by injection in the lower quadrent of the abdomen. The synergist was administered in 0.1 ml of corn oil one hour prior to administration of the insecticide. Eight mice were treated, per dosage, with each synergist. The mice were watched for a minimum of 6 hours while held in a glass jar with bedding individually after intraperitoneal injection of the test solutions. Lethality was noted, the animals were weighed and transferred in cages, and food and water were supplied. Control mice were given 0.1 ml of corn oil at the time of administration of the synergist to the test mice and 0.1 ml corn oil plus Dimetilan at the time of administration of the insecticide to the test mice.
By the same procedure, the synergism of acute toxicity of GS 13005, Secobarbital and 6-dimethylamino-4,4-diphenyl-3-heptanone [Methadone] was determined.

[3] = tested on: IN/WHO strain house flies; test: topical application, percent kill after 24 hours, susceptible IN/WHO strain; type: in vivo, female); conditions: for percent kill after 24 hours, synergist alone (GS 13005 part of Table XXXI): GS 13005 0, synergist 1 μg/fly; for percent kill after 24 hours, with GS 13005: GS 13005 0.10 + synergist 0.50 μg/fly; for percent kill after 24 hours, with Mobam: Mobam 0.20 + synergist 1 μg/fly; for percent kill after 24 hours, synergist alone: insecticide 0, synergist 1 μg/fly
Protocol: (§1) In Table IX, and in the tables following it, the doses of topically applied insecticides and of synergists unless otherwise noted are expressed as micrograms per fly (μg/fly).
(§2) The synergistic effect of O-(2-propynyl) oximes with mobam was determined from topical application tests on susceptible, female, IN/WHO strain house flies and from tests on resistant, female, Rutgers A strain house flies. The synergist and insecticide were dissolved in ACS Grade acetone in such quantities that a 1.0 μ liter volume applied to the thorax of 3-to-5 day old CO2 -anesthetized female adult house flies contained the desired dosage. After being treated, the flies were confined, 10 to a plaster petri dish, with 3-5 dishes/treament, and held for 24-hr. observation of mortality. Reconstituted skim milk on cotton dental wicks was provided during the holding period. The percent kills after 24 hours are shown in Table X for the IN/WHO strain and Table XI for the Rutgers A strain.
(§3) The synergistic effect of benzyl 2-propynyl ethers with mobam was determined from topical application tests on IN/WHO and Rutgers A strain houseflies, following the procedure of Example 5. The percent kills after 24 hours are shown in Table XIV for the IN/WHO strain and in Table XV for the Rutgers A strain.
The effects of varying the insecticide dose and the synergist-insecticide ratio are further illustrated, with synergist compounds II-D, II-E, II-F and Mobam insecticide, in Tables XVI, XVII and XVIII. […]
The effect on IN/WHO flies of synergist compound IV-C, identified in Table IV, with mobam was determined by the topical application procedure of Example 5. […]
(§4) The synergistic effect with GS 13005 of compounds I-A, I-B, I-D, I-E, I-F, I-G and I-I was determined from topical application tests to IN/WHO strain, Rutgers A strain and polyvalent CH strain houseflies using the procedures of Example 5. The percent kills of the IN/WHO strain flies after 24 hours are shown in Table XXVIII; of the Rutgers A strain, in Table XXIX; and of the polyvalent CH strain, in Table XXX. The doses of insecticide alone to the CH strain files caused 10-40% mortality.
The synergistic effect with Diazinon and GS 13005 of various of the benzyl 2-propynyl ethers identified in Tables II and IIa was determined by topical application tests on IN/WHO strain, and Rutgers A strain and polyvalent, resistant, CH strain houseflies using the procedures of Example 5. The percent kills after 24 hours of IN/WHO strain flies are shown in Table XXXI; of Rutgers A strain flies, in Table XXXII; and of CH strain flies, in Table XXXIII. The doses of insecticide alone to the CH strain flies caused 10-40% mortality. […]
(§5) The synergistic effect on IN/WHO strain flies and Rutgers A strain flies of compound IV-C with GS 13005 and with Diazinon was determined by the topical application procedure of Example 5. The percent kills of IN/WHO strain flies after 24 hours are shown in Tables XXXVI and XXXVII; the percent kills of Rutgers A strain flies are shown in Tables XXXVIII and XXXIX.

[4] = tested on: Rutgers A strain house flies; test: topical application, percent kill after 24 hours, resistant Rutgers A strain; type: in vivo, female); conditions: for percent kill after 24 hours, with GS 13005: GS 13005 1.0 + synergist 5.0 μg/fly; for percent kill after 24 hours, synergist alone: insecticide 0, synergist 5.0 μg/fly
Protocol: as §1, §2, §3
The synergistic effect with Diazinon of compounds I-B, I-D, I-F, I-G, I-H and I-I, identified in Tables I and Ia, was determined from topical application tests on IN/WHO strain houseflies and on Rutgers A strain houseflies by the procedure of Example 5. The percent kills after 24 hours are shown in Table XXV for the IN/WHO strain and Table XXVI for the Rutgers A strain.
as §4
The synergistic effect with Diazinon and GS 13005 of various of the benzyl 2-propynyl ethers identified in Tables II and IIa was determined by topical application tests on IN/WHO strain, and Rutgers A strain and polyvalent, resistant, CH strain houseflies using the procedures of Example 5. The percent kills after 24 hours of IN/WHO strain flies are shown in Table XXXI; of Rutgers A strain flies, in Table XXXII; and of CH strain flies, in Table XXXIII. The doses of insecticide alone to the CH strain flies caused 10-40% mortality.
as §5

[5] = synergist to insecticide 5:1 by weight
[6] = synergist 110 mg/kg one hour prior
[7] = synergist 74 mg/kg one hour prior
[8] = Dimetilan 8 + synergist 240 mg/kg i.p.
[9] = Dimetilan 8 + synergist 80 mg/kg i.p.

Row | SMILES | Contact Synergistic Ratio, Pyrolan [1, 5] | Contact Synergistic Ratio, Carbaryl ([1]; in vivo) | Mean Sleeping Time, Noludar (male mice; [6]) [min] | Relative Sleeping Time, Noludar (male mice; synergist 110 mg/kg) | Mean Sleeping Time, Secobarbital (male mice; [7]) [min] | Relative Sleeping Time, Secobarbital (male mice; synergist 74 mg/kg) | Mean Sleeping Time, Secobarbital (male mice; [6]) [min] | Relative Sleeping Time, Secobarbital (male mice; synergist 110 mg/kg) | number of mice dead, with Dimetilan [2, 8] | number of mice dead, with Dimetilan [2, 9] | also measured
1 | C#CCOCc1ccc(Cl)cc1 [II-A] | 7 | 50 | – | – | – | – | – | – | – | – | –
2 | C#CCON=Cc1ccc(N(C)C)cc1 [I-C] | 20 | 200 | 34 | 1.0 | 30 | 1.1 | 108 | 1.8 | 0 | – | –
3 | C#CCn1nc(Cl)c2ccc([N+](=O)[O-])cc21 [III-C, N-(2-propynyl)-3-chloro-6-nitroindazole] | 10 | 53 | – | – | – | – | – | – | – | – | –
4 | C#CCOCc1ccc([N+](=O)[O-])c(Cl)c1 [II-O] | – | – | 52 | 2.4 | – | – | 26 | 1.1 | 2 | 0 | percent kill after 24 hours, synergist alone (GS 13005 part of Table XXXI) [3]: 10%; percent kill after 24 hours, with GS 13005 [3]: 90%; percent kill after 24 hours, with Mobam [3]: 60%; percent kill after 24 hours, synergist alone [3]: 10%; percent kill after 24 hours, with GS 13005 [4]: 47%; percent kill after 24 hours, synergist alone [4]: 3%
5 | C#CCn1ncc2ccc(Cl)cc21 [III-D] | 25 | 250 | 45 | 1.5 | – | – | 55 | 1.2 | 1 | – | –
6 | C#CCOC(c1ccc(Cl)cc1Cl)C(C)[N+](=O)[O-] (centres unmarked) [IV-A, 2-propynyl 1-(2,4-dichlorophenyl)-2-nitropropyl ether] | 10 | 134 | 78 | 2.7 | 56 | 2.3 | – | – | 7 | 4 | –
7 | C#CCOCc1cccc(Cl)c1[N+](=O)[O-] [II-I] | – | – | 56 | 1.8 | 31 | 1.2 | 32 | 1.3 | 3 | 0 | percent kill after 24 hours, synergist alone (GS 13005 part of Table XXXI) [3]: 7%; percent kill after 24 hours, with GS 13005 [3]: 99%; percent kill after 24 hours, with Mobam [3]: 97%; percent kill after 24 hours, synergist alone [3]: 7%; percent kill after 24 hours, with GS 13005 [4]: 83%; percent kill after 24 hours, with Mobam ([4]; Mobam 0.40 + synergist 2.0 μg/fly): 37%; percent kill after 24 hours, synergist alone [4]: 3%
8 | C#CCOCc1ccc(Cl)cc1Cl [II-B] | 15 | 50 | – | – | – | – | – | – | – | – | –
9 | C#CCOCc1ccc2c(c1)OCO2 [II-G] | 15 | – | – | – | – | – | – | – | – | – | Contact Synergistic Ratio, Carbaryl ([1]; LC50 carbaryl alone / LC50 with synergist, synergist to insecticide 5:1 by weight): 100
10 | C#CCOC(c1cccc2ccccc12)C(C)[N+](=O)[O-] (centres unmarked) [IV-B, 2-propynyl 1-naphthyl-2-nitropropyl ether] | 10 | 50 | – | – | – | – | – | – | – | – | –
11 | C#CCOCc1ccc([N+](=O)[O-])cc1Cl [II-N] | – | – | 58 | 1.9 | 20 | 1.0 | 39 | 1.7 | 4 | 0 | percent kill after 24 hours, with GS 13005 [3]: 84%; percent kill after 24 hours, with Mobam [3]: 97%; percent kill after 24 hours, with GS 13005 [4]: 60%
12 | Cc1cc(OC(=O)N(C)C)n(-c2ccccc2)n1 [Pyrolan, 3-methyl-1-phenyl-5-pyrazolyl-N-dimethylcarbamate, reference compound] | – | – | – | – | – | – | – | – | – | – | 24 hour percent mortality, Pyrolan alone ([3]; Pyrolan 0.63 μg/fly): 0%; LC50 of insecticide alone ([1]; Wilson strain fly, 24-hour kill, no synergist): 0.15 mg/jar
